Experimental data: the supplement of paper PMC11061612

Assays:
Test in all cases: combination Emax (second highest fraction inhibited in the dose matrix, 72 h); higher = more inhibition; extreme values may be limits of the assay
[1] = test system: COR-L95 (Small Cell Lung Carcinoma)
Method in brief: (§1)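 After 24 hours at 37°C and 5% CO2 in 1536-well plates, cells in DMEM/F12 or RPMI plus 10% FBS received two-drug dose matrices for 72 hours. Viability came from CellTiter-Glo 2.0 luminescence and was scaled as inhibition, anchored at 0 by vehicle wells and at 1 by blank wells. Combination Emax is taken as the second-highest inhibition in the matrix, and Bliss excess as the observed combination effect less EA + EB − EA·EB, with EA and EB the single-agent effects.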

[2] = test system: DB (B-Cell Non-Hodgkin's Lymphoma)
Method in brief: as §1

[3] = test system: DOV13 (Ovarian Carcinoma)
Method in brief: as §1

DSH1 (Bladder Carcinoma) = test system: DSH1 (Bladder Carcinoma)
Method in brief: as §1

[4] = test system: G-292-Clone-A141B1 (Osteosarcoma)
Method in brief: as §1

[5] = test system: IHH-4 (Thyroid Gland Carcinoma)
Method in brief: as §1

[6] = test system: KARPAS-1106P (B-Cell Non-Hodgkin's Lymphoma)
Method in brief: as §1

[7] = test system: KARPAS-620 (Plasma Cell Myeloma)
Method in brief: as §1

[8] = test system: LS-513 (Colorectal Carcinoma)
Method in brief: as §1

[9] = test system: MDA-MB-157 (Breast Carcinoma)
Method in brief: as §1

[10] = test system: MDA-MB-231 (Breast Carcinoma)
Method in brief: as §1

[11] = test system: MFH-ino (Other Solid Carcinomas)
Method in brief: as §1

[12] = test system: NCI-H1299 (Non-Small Cell Lung Carcinoma)
Method in brief: as §1

NCI-H2595 (Mesothelioma) = test system: NCI-H2595 (Mesothelioma)
Method in brief: as §1

[13] = test system: OCI-AML2 (Acute Myeloid Leukemia)
Method in brief: as §1

SK-N-FI (Neuroblastoma) = test system: SK-N-FI (Neuroblastoma)
Method in brief: as §1

SN12C (Kidney Carcinoma) = test system: SN12C (Kidney Carcinoma)
Method in brief: as §1

[14] = test system: SW1783 (Low Grade Glioma)
Method in brief: as §1

[15] = test system: TE-5 (Esophageal Squamous Cell Carcinoma)
Method in brief: as §1

[16] = test system: U-266 (Plasma Cell Myeloma)
Method in brief: as §1

Compound	combination Emax [1]	combination Emax [2]	combination Emax [3]	combination Emax (DSH1 (Bladder Carcinoma))	combination Emax [4]	combination Emax [5]	combination Emax [6]	combination Emax [7]	combination Emax [8]	combination Emax [9]	combination Emax [10]	combination Emax [11]	combination Emax [12]	combination Emax (NCI-H2595 (Mesothelioma))	combination Emax [13]	combination Emax (SK-N-FI (Neuroblastoma))	combination Emax (SN12C (Kidney Carcinoma))	combination Emax [14]	combination Emax [15]	combination Emax [16]
O=C(c1cc(Cc2n[nH]c(=O)c3ccccc23)ccc1F)N1CCN(C(=O)C2CC2)CC1 [Olaparib] + CN(CC[C@H](CSC1=CC=CC=C1)NC2=C(C=C(C=C2)S(=O)(=O)NC(=O)C3=CC=C(C=C3)N4CCC(CC4)[C@H](C5=CC=CC=C5C6=CC=C(C=C6)Cl)O)S(=O)(=O)C(F)(F)F)CCO [AZD4320] (first compound max 10 µM, 7x7, partner max 1 µM)	1	0.923	0.86	0.512	0.419	0.206	0.498	1	0.452	0.216	0.668	0.108	0.114	0.228	1	0.144	0.18	0.289	0.238	0.631
O=C(c1cc(Cc2n[nH]c(=O)c3ccccc23)ccc1F)N1CCN(C(=O)C2CC2)CC1 [Olaparib] + COc1nnc2ccc(N3CCC(c4ccc(OCCN5CCN(C)C(=O)[C@H]5C)cc4)CC3)nn12 [AZD5153] (first compound max 10 µM, 7x7, partner max 1 µM)	0.455	0.74	0.455	0.647	0.224	0.535	0.791	0.666	0.591	0.438	0.626	0.346	0.637	0.273	0.983	0.489	0.255	0.319	0.347	0.291
O=C(c1cc(Cc2n[nH]c(=O)c3ccccc23)ccc1F)N1CCN(C(=O)C2CC2)CC1 [Olaparib] + Cc1c2c(nn1C)CSCc1cc(n(C)n1)CSc1cc(c3ccccc3c1)OCCCc1c(C(=O)O)n(C)c3c-2c(Cl)ccc13 [AZD5991] (first compound max 10 µM, 7x7, partner max 1 µM)	0.395	0.994	0.216	0.692	0.109	0.174	0.919	1	0.204	0.655	0.161	0.0277	0.0533	0.217	0.953	0.211	0.065	0.0425	0.0405	0.846
N#Cc1cnc(Nc2cc(NC[C@H]3CNCCO3)c(C(F)(F)F)cn2)cn1 [SRA737] + CCc1c2c(nc3ccc(O)cc13)-c1cc3c(c(=O)n1C2)COC(=O)[C@]3(O)CC [SN-38] (first compound max 10 µM, 7x7, partner max 0.3 µM)	0.572	0.988	0.994	0.95	0.41	0.98	0.902	0.658	0.742	0.955	0.908	0.704	0.559	0.389	1	0.606	0.627	0.857	0.851	0.576
N#Cc1cnc(Nc2cc(NC[C@H]3CNCCO3)c(C(F)(F)F)cn2)cn1 [SRA737] + Nc1ccn([C@@H]2O[C@H](CO)[C@@H](O)C2(F)F)c(=O)n1 [Gemcitabine] (first compound max 10 µM, 7x7, partner max 0.3 µM)	0.391	0.931	0.97	0.972	0.317	1	0.951	0.801	0.801	0.905	0.838	0.738	0.765	0.397	1	0.752	0.664	0.729	0.633	0.78
N#Cc1cnc(Nc2cc(NC[C@H]3CNCCO3)c(C(F)(F)F)cn2)cn1 [SRA737] + O=c1[nH]cc(F)c(=O)[nH]1 [5-Fluorouracil] (first compound max 10 µM, 7x7, partner max 20 µM)	0.232	0.236	0.347	0.414	0.121	0.934	0.881	0.414	0.644	0.926	0.271	0.314	0.448	0.132	1	0.601	0.0841	0.318	0.24	0.633
Cc1nc(-c2cn3c(n2)-c2ccc(-c4cnn(C(C)(C)C(N)=O)c4)cc2OCC3)n(C(C)C)n1 [Taselisib] + O=C(Nc1ccc2[nH]nc(-c3ccncc3)c2c1)[C@@H]1CCN(CC(=O)N2CCN(c3ccc(-c4ncccn4)cc3)CC2)C1 [SCH772984] (first compound max 10 µM, 7x7, partner max 5 µM)	0.238	0.449	0.599	0.977	0.945	0.73	0.78	0.969	0.975	0.418	0.834	0.659	0.629	0.393	1	0.877	0.387	0.643	0.822	0.787
CC1(C)CCC(CN2CCN(c3ccc(C(=O)NS(=O)(=O)c4ccc(NCC5CCOCC5)c([N+](=O)[O-])c4)c(Oc4cnc5[nH]ccc5c4)c3)CC2)=C(c2ccc(Cl)cc2)C1 [Venetoclax] + CS(=O)(=O)CCNCc1ccc(-c2ccc3ncnc(Nc4ccc(OCc5cccc(F)c5)c(Cl)c4)c3c2)o1 [Lapatinib] (first compound max 1 µM, 7x7, partner max 10 µM)	0.677	0.949	0.166	0.747	0.113	0.175	0.419	0.981	0.615	0.172	0.17	0.0533	0.125	0.197	1	0.223	0.222	0.207	0.218	0.254
